# Reference: paper PMC10697071, “Bio-guided isolation of alpha-glucosidase inhibitory compounds from Vietnamese liverwort Marchantia polymorpha: in vitro and in silico studies” (RSC Advances, 2023)
# “Also recorded” adds a separate entry of the source.
# Key:
# [1] = target: yeast alpha-glucosidase; test: Alpha-glucosidase inhibition assay; type: biochemical; settings: for IC50: yeast alpha-glucosidase
# From the text: Evaluation of the inhibitory activity of 1–12 against yeast alpha-glucosidase followed a previous procedure.[37]
# [2] = system: alpha-glucosidase; test: Kinetic study of alpha-glucosidase inhibition (Lineweaver–Burk plots); type: biochemical
# Experimental: To examine the inhibition mechanism, activity at concentrations of 0, 3.61, 7.22, 14.44, and 28.88 μM of 2 was recorded. […] Increasing inhibitor concentrations cause a decrease in the Vmax of α-glucosidase.
# The mechanisms of inhibition of alpha-glucosidase by 2 were determined by Lineweaver–Burk plots (Microsoft Excel 2010, Washington, USA), using methods similar to those reported in the literature.[40] Enzyme inhibition due to various concentrations of 2 was evaluated by monitoring the effects of different concentrations of the substrate. For Lineweaver–Burk double reciprocal plots 1/enzyme velocity (1/V) vs. 1/substrate concentration (1/[S]), the inhibition type was determined using various concentrations of pNPG (1 mM, 2 mM, and 4 mM) as a substrate in the presence of different concentrations of the test compound (0, 3.61, 7.22, 14.44, and 28.88 μM for 2). The experiments were carried out in three replicates. The mixtures were incubated at 37 °C, and the optical density was measured at 405 nm every 1 min for 30 min with the ELx800 Absorbance Microplate Reader (BioTek Instruments, Inc., Vermont, USA). The optimal concentrations of the tested compound were chosen based on the IC50 value. The inhibition constants were obtained graphically from secondary plots (Microsoft Excel 2010, Washington, USA).
compound,measurement,setting,value
"Oc1cc2cc(c1O)Oc1ccc(cc1)CCc1cccc(O)c1Oc1cccc(c1)CC2 [Compound 1, Marchantin A]",IC50,[1],57.3 ± 1.9 µM
"Oc1cccc2c1Oc1cccc(c1)CCc1cc(c(O)c(O)c1Br)Oc1ccc(cc1)CC2 [Compound 1a, 5′-Bromomarchantin A]",Alpha-glucosidase inhibition (in words),[1]; qualitative statement,weaker activity than the parent compound 1
same,IC50,[1],151 ± 2.9 µM
"Oc1ccc2cc1Oc1ccc(cc1)CCc1ccc(c(O)c1)-c1c(O)cccc1CC2 [Compound 2, Isoriccardin C]",Type of inhibition,"[2]; Lineweaver–Burk plots, same Km, decreasing Vmax",non-competitive inhibitor; also recorded: non-competitive type
same,Ki,"[2]; pNPG substrate 1, 2, 4 mM, 37 °C, secondary plot of slope versus concentration, read-out: Ki (inhibition constant)",67.1 ± 1.28 µM
same,IC50,[1],28.9 ± 0.2 µM
"Oc1ccc2c(c1)CCc1ccc(cc1)Oc1cc(ccc1O)CCc1ccc-2c(O)c1 [Compound 3, Riccardin C]",IC50,[1],42.2 ± 1.4 µM
"COC1Cc2cccc(c2)Oc2c(ccc(O)c2O)CCc2ccc(cc2)Oc2cc1cc(O)c2O (stereo not drawn) [Compound 4, Marchantin K]",IC50,[1],131 ± 3 µM
"Oc1ccc(CCc2cccc(O)c2)cc1 [Compound 5, Lunularin]",IC50,[1],130 ± 2 µM
"COc1cc(OC)c2c(c1)[C@@H](Cc1ccc(OC)c(OC)c1)OC2=O [Compound 6, 3R-(3,4-Dimethoxybenzyl)-5,7-dimethoxyphthalide]",IC50,[1],> 200 µM
"COc1cc(OC)c2c(c1)[C@H](Cc1cc(OC)c(OC)c(OC)c1)OC2=O [Compound 7, Marchatoside]",IC50,[1],> 200 µM
"CC1(C)CC[C@]2(C)CC[C@]3(C)C(=CCC4[C@@]5(C)CCC(=O)C(C)(C)C5CC[C@]43C)C2C1 (stereo partly drawn) [Compound 10, 12-Oleanene-3-one]",IC50,[1],75.1 ± 1.8 µM
"C[C@@H]1CC[C@]2(C(=O)O)CC[C@]3(C)C(=CC(=O)C4[C@@]5(C)CCC(=O)C(C)(C)C5CC[C@]43C)C2[C@H]1C (stereo partly drawn) [Compound 11, 3,11-Dioxoursolic acid]",IC50,[1],101 ± 3 µM
"C[C@H]1[C@H](C)CC[C@]2(C(=O)O)CC[C@]3(C)C(=CC[C@@H]4[C@@]5(C)CC[C@H](O)C(C)(C)[C@@H]5CC[C@]43C)[C@H]12 [Compound 12, Ursolic acid]",IC50,[1],86 ± 6.9 µM
Vitexilactone [Compound 9],IC50,[1],> 200 µM
